Results reported in patent US20210045385A1, “PYRIDAZINONE-SUBSTITUTED KETOXIMES AS HERBICIDES” (FMC Corporation, priority 2018, published 2021).

What was measured:
Assay type in all cases: in vivo
[1] = test system: duck salad (Heteranthera limosa); experiment: Test D flooded paddy test, visual plant response rating; conditions: 250 g ai/ha, scale 0 to 100 (0 no effect, 100 complete control), 13 to 15 d
Summary of the method: (§1)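 Rating is visual, on a 0 (no effect) to 100 (complete control) scale versus controls, taken 13 to 15 d after treatment in a greenhouse. Treatment went into paddy water kept 3 cm above the soil surface, with plants at the 2-leaf stage.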

[2] = test system: sedge umbrella (small-flower umbrella sedge, Cyperus difformis); experiment: as above; conditions: 250 g ai/ha, scale 0 to 100 (0 no effect, 100 complete control), 13 to 15 d
Summary of the method: as §1

rice (Oryza sativa) = experiment: as above; conditions: 250 g ai/ha, scale 0 to 100 (0 no effect, 100 complete control), 13 to 15 d
Summary of the method: as §1

[3] = test system: barnyardgrass (Echinochloa crus-galli); experiment: as above; conditions: 250 g ai/ha, scale 0 to 100 (0 no effect, 100 complete control), 13 to 15 d
Summary of the method: as §1

[4] = test system: pigweed (Amaranthus retroflexus); experiment: Test C preemergence, visual plant response rating
Summary of the method: (§2)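 Visual injury on a 0 (no effect) to 100 (complete control) scale versus untreated controls, scored approximately 10 d after treatment under greenhouse conditions. Treatments used surfactant-containing non-phytotoxic solvent formulations, sprayed onto loam–sand soil preemergence or onto one- to two-leaf plants 2–10 cm tall postemergence.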

[5] = test system: barnyardgrass (Echinochloa crus-galli); experiment: Test C preemergence, visual plant response rating
Summary of the method: as §2

[6] = test system: Italian ryegrass (Lolium mutiflorum); experiment: Test C preemergence, visual plant response rating
Summary of the method: as §2

[7] = test system: ragweed (common ragweed, Ambrosia artemisiifolia); experiment: Test C preemergence, visual plant response rating
Summary of the method: as §2

kochia (Bassia scoparia) [8] = experiment: Test C preemergence, visual plant response rating
Summary of the method: as §2

[9] = test system: foxtail, giant (giant foxtail, Setaria faberi); experiment: Test C preemergence, visual plant response rating
Summary of the method: as §2

[10] = test system: pigweed (Amaranthus retroflexus); experiment: Test C postemergence, visual plant response rating
Summary of the method: as §2

[11] = test system: blackgrass (Alopecurus myosuroides); experiment: Test C postemergence, visual plant response rating
Summary of the method: as §2

[12] = test system: galium (catchweed bedstraw, Galium aparine); experiment: Test C postemergence, visual plant response rating
Summary of the method: as §2

[13] = test system: barnyardgrass (Echinochloa crus-galli); experiment: Test C postemergence, visual plant response rating
Summary of the method: as §2

[14] = test system: Italian ryegrass (Lolium mutiflorum); experiment: Test C postemergence, visual plant response rating
Summary of the method: as §2

[15] = test system: ragweed (common ragweed, Ambrosia artemisiifolia); experiment: Test C postemergence, visual plant response rating
Summary of the method: as §2

corn (Zea mays) = experiment: Test C postemergence, visual plant response rating
Summary of the method: as §2

kochia (Bassia scoparia) [16] = experiment: Test C postemergence, visual plant response rating
Summary of the method: as §2

[17] = test system: foxtail, giant (giant foxtail, Setaria faberi); experiment: Test C postemergence, visual plant response rating
Summary of the method: as §2

[18] = test system: wheat (Triticum aestivum); experiment: Test C postemergence, visual plant response rating
Summary of the method: as §2

[19] = Test C, 31 g ai/ha, 0 is no effect, 100 is complete control
[20] = Test C, 125 g ai/ha, 0 is no effect, 100 is complete control
[21] = Test C, postemergence, 125 g ai/ha
[22] = Test C, postemergence, 1000 g ai/ha

Row | Structure (SMILES) | Plant response rating, Ducksalad (Flood) [1] | Plant response rating, Sedge, Umbrella (Flood) [2] | Plant response rating, Rice (Flood) (rice (Oryza sativa)) | Plant response rating, Barnyardgrass (Flood) [3] | Pigweed plant response rating (0 to 100 scale) [4, 19] | Pigweed plant response rating (0 to 100 scale) [4, 20] | Barnyardgrass plant response rating (0 to 100 scale) [5, 19] | Barnyardgrass plant response rating (0 to 100 scale) [5, 20] | Ryegrass, Italian plant response rating (0 to 100 scale) [6, 19] | Ryegrass, Italian plant response rating (0 to 100 scale) [6, 20] | Ragweed plant response rating (0 to 100 scale) [7, 19] | Ragweed plant response rating (0 to 100 scale) [7, 20] | Kochia plant response rating (0 to 100 scale) (kochia (Bassia scoparia) [8]; [19]) | Kochia plant response rating (0 to 100 scale) (kochia (Bassia scoparia) [8]; [20]) | Foxtail, Giant plant response rating (0 to 100 scale) [9, 19] | Foxtail, Giant plant response rating (0 to 100 scale) [9, 20] | Pigweed plant response rating (0 to 100 scale) ([10]; Postemergence, 31 g ai/ha) | Pigweed plant response rating (0 to 100 scale) [10, 21] | Blackgrass plant response rating (0 to 100 scale) ([11]; Postemergence, 31 g ai/ha) | Blackgrass plant response rating (0 to 100 scale) [11, 21] | other results
1 | CCOc1cccc(C(=NOC)c2c(O)c(C)nn(C)c2=O)c1 [Compound 200] | 0 | 0 | 0 | 0 | 0 | 0 | 0 | 0 | 0 | 0 | 0 | 0 | 0 | 0 | 0 | 10 | 0 | 0 | 0 | 0 | Galium plant response rating (0 to 100 scale) ([12]; Postemergence, 31 g ai/ha): 30; Galium plant response rating (0 to 100 scale) [12, 21]: 40; Barnyardgrass plant response rating (0 to 100 scale) ([13]; Postemergence, 31 g ai/ha): 20; Barnyardgrass plant response rating (0 to 100 scale) [13, 21]: 30; Ryegrass, Italian plant response rating (0 to 100 scale) ([14]; Postemergence, 31 g ai/ha): 0; Ryegrass, Italian plant response rating (0 to 100 scale) [14, 21]: 0; Ragweed plant response rating (0 to 100 scale) ([15]; Postemergence, 31 g ai/ha): 0; Ragweed plant response rating (0 to 100 scale) [15, 21]: 0; Corn plant response rating (0 to 100 scale) (corn (Zea mays); Postemergence, 31 g ai/ha): 0; Corn plant response rating (0 to 100 scale) (corn (Zea mays); [21]): 0; Kochia plant response rating (0 to 100 scale) (kochia (Bassia scoparia) [16]; Postemergence, 31 g ai/ha): 0; Kochia plant response rating (0 to 100 scale) (kochia (Bassia scoparia) [16]; [21]): 0; Foxtail, Giant plant response rating (0 to 100 scale) ([17]; Postemergence, 31 g ai/ha): 10; Foxtail, Giant plant response rating (0 to 100 scale) [17, 21]: 20; Wheat plant response rating (0 to 100 scale) ([18]; Postemergence, 31 g ai/ha): 0; Wheat plant response rating (0 to 100 scale) [18, 21]: 0
2 | CO/N=C(\c1ccc(F)c(Cl)c1)c1c(O)c(C)nn(C)c1=O [Compound 219] | 0 | 0 | 0 | 0 | 0 | 10 | 0 | 0 | 0 | 0 | 0 | 0 | 0 | 0 | 0 | 0 | 20 | 40 | 0 | 0 | Galium plant response rating (0 to 100 scale) ([12]; Postemergence, 31 g ai/ha): 50; Galium plant response rating (0 to 100 scale) [12, 21]: 60; Barnyardgrass plant response rating (0 to 100 scale) ([13]; Postemergence, 31 g ai/ha): 20; Barnyardgrass plant response rating (0 to 100 scale) [13, 21]: 30; Ryegrass, Italian plant response rating (0 to 100 scale) ([14]; Postemergence, 31 g ai/ha): 0; Ryegrass, Italian plant response rating (0 to 100 scale) [14, 21]: 40; Ragweed plant response rating (0 to 100 scale) ([15]; Postemergence, 31 g ai/ha): 0; Ragweed plant response rating (0 to 100 scale) [15, 21]: 10; Corn plant response rating (0 to 100 scale) (corn (Zea mays); Postemergence, 31 g ai/ha): 0; Corn plant response rating (0 to 100 scale) (corn (Zea mays); [21]): 0; Kochia plant response rating (0 to 100 scale) (kochia (Bassia scoparia) [16]; Postemergence, 31 g ai/ha): 10; Kochia plant response rating (0 to 100 scale) (kochia (Bassia scoparia) [16]; [21]): 50; Foxtail, Giant plant response rating (0 to 100 scale) ([17]; Postemergence, 31 g ai/ha): 0; Foxtail, Giant plant response rating (0 to 100 scale) [17, 21]: 0; Wheat plant response rating (0 to 100 scale) ([18]; Postemergence, 31 g ai/ha): 0; Wheat plant response rating (0 to 100 scale) [18, 21]: 0
3 | C#CCO/N=C(/c1c(O)cnn(C)c1=O)c1cccc2ccccc12 [Compound 221] | 0 | 0 | 0 | 0 | – | – | – | – | – | – | – | – | – | – | – | – | – | – | – | – | Pigweed plant response rating (0 to 100 scale) ([4]; 1000 g ai/ha): 100; Barnyardgrass plant response rating (0 to 100 scale) ([5]; 1000 g ai/ha): 30; Ryegrass, Italian plant response rating (0 to 100 scale) ([6]; 1000 g ai/ha): 100; Ragweed plant response rating (0 to 100 scale) ([7]; 1000 g ai/ha): 80; Kochia plant response rating (0 to 100 scale) (kochia (Bassia scoparia) [8]; 1000 g ai/ha): 60; Foxtail, Giant plant response rating (0 to 100 scale) ([9]; 1000 g ai/ha): 100; Pigweed plant response rating (0 to 100 scale) [10, 22]: 90; Blackgrass plant response rating (0 to 100 scale) [11, 22]: 90; Galium plant response rating (0 to 100 scale) [12, 22]: 100; Barnyardgrass plant response rating (0 to 100 scale) [13, 22]: 70; Ryegrass, Italian plant response rating (0 to 100 scale) [14, 22]: 100; Ragweed plant response rating (0 to 100 scale) [15, 22]: 80; Corn plant response rating (0 to 100 scale) (corn (Zea mays); [22]): 20; Kochia plant response rating (0 to 100 scale) (kochia (Bassia scoparia) [16]; [22]): 70; Foxtail, Giant plant response rating (0 to 100 scale) [17, 22]: 60; Wheat plant response rating (0 to 100 scale) [18, 22]: 60
4 | CO/N=C(\c1c(O)c(C)nn(C)c1=O)c1cc(SC)cc2ccccc12 [Compound 279] | 0 | 0 | 0 | 0 | 0 | 0 | 0 | 0 | 0 | 0 | 0 | 0 | 0 | 0 | 0 | 0 | 0 | 10 | 0 | 0 | Galium plant response rating (0 to 100 scale) ([12]; Postemergence, 31 g ai/ha): 0; Galium plant response rating (0 to 100 scale) [12, 21]: 0; Barnyardgrass plant response rating (0 to 100 scale) ([13]; Postemergence, 31 g ai/ha): 0; Barnyardgrass plant response rating (0 to 100 scale) [13, 21]: 0; Ryegrass, Italian plant response rating (0 to 100 scale) ([14]; Postemergence, 31 g ai/ha): 0; Ryegrass, Italian plant response rating (0 to 100 scale) [14, 21]: 0; Ragweed plant response rating (0 to 100 scale) ([15]; Postemergence, 31 g ai/ha): 0; Ragweed plant response rating (0 to 100 scale) [15, 21]: 10; Corn plant response rating (0 to 100 scale) (corn (Zea mays); Postemergence, 31 g ai/ha): 0; Corn plant response rating (0 to 100 scale) (corn (Zea mays); [21]): 0; Kochia plant response rating (0 to 100 scale) (kochia (Bassia scoparia) [16]; Postemergence, 31 g ai/ha): 0; Kochia plant response rating (0 to 100 scale) (kochia (Bassia scoparia) [16]; [21]): 30; Foxtail, Giant plant response rating (0 to 100 scale) ([17]; Postemergence, 31 g ai/ha): 0; Foxtail, Giant plant response rating (0 to 100 scale) [17, 21]: 0; Wheat plant response rating (0 to 100 scale) ([18]; Postemergence, 31 g ai/ha): 0; Wheat plant response rating (0 to 100 scale) [18, 21]: 0
5 | C#CCO/N=C(/c1cc(Cl)cc(Br)c1)c1c(O)c(C)nn(C)c1=O [Compound 291] | 25 | 45 | 0 | 0 | 10 | 80 | 0 | 100 | 10 | 100 | 60 | 100 | 0 | 90 | 50 | 100 | 30 | 60 | 0 | 70 | Galium plant response rating (0 to 100 scale) ([12]; Postemergence, 31 g ai/ha): 100; Galium plant response rating (0 to 100 scale) [12, 21]: 100; Barnyardgrass plant response rating (0 to 100 scale) ([13]; Postemergence, 31 g ai/ha): 20; Barnyardgrass plant response rating (0 to 100 scale) [13, 21]: 70; Ryegrass, Italian plant response rating (0 to 100 scale) ([14]; Postemergence, 31 g ai/ha): 90; Ryegrass, Italian plant response rating (0 to 100 scale) [14, 21]: 100; Ragweed plant response rating (0 to 100 scale) ([15]; Postemergence, 31 g ai/ha): 100; Ragweed plant response rating (0 to 100 scale) [15, 21]: 100; Corn plant response rating (0 to 100 scale) (corn (Zea mays); Postemergence, 31 g ai/ha): 20; Corn plant response rating (0 to 100 scale) (corn (Zea mays); [21]): 30; Kochia plant response rating (0 to 100 scale) (kochia (Bassia scoparia) [16]; Postemergence, 31 g ai/ha): 50; Kochia plant response rating (0 to 100 scale) (kochia (Bassia scoparia) [16]; [21]): 100; Foxtail, Giant plant response rating (0 to 100 scale) ([17]; Postemergence, 31 g ai/ha): 40; Foxtail, Giant plant response rating (0 to 100 scale) [17, 21]: 80; Wheat plant response rating (0 to 100 scale) ([18]; Postemergence, 31 g ai/ha): 30; Wheat plant response rating (0 to 100 scale) [18, 21]: 90
